Measured values taken from PubChem BioAssay AID624404 (Broad Institute, 2012).
Results filed as inconclusive are left out. The source made the active and inactive calls.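 How the source made its calls: active means luciferase signal rise whose fitted curve crosses a set activity limit at or below the top valid tested dose; inconclusive means flat fit with 30 to 70% rise, or poor fit; inactive means signal falling, flat within 30%, or crossing above top dose.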

test system: D54 LucT luciferase reporter counterscreen, luminescence, 24 h; test: reporter signal increase, D54 LucT cells – cell-based, luminescence, cherry pick, counter-screen for N-linked glycosylation inhibitor project, dose response (AID 624404)

Q: With `CC(C)(C)c1ccc(OCC(=O)Nc2ccncc2)c(Br)c1` as the compound, how does the AC35 read?
A: Its AC35 is 0.0356 µM.

Q: `COc1cc2c(cc1OC)CN(c1ccc(-c3ccccc3OC)nn1)CC2` was tested. Which AC35 did it give?
A: The AC35 was 7.87 µM.

Q: `CC1CN(C(=O)c2cc(-c3ccc(Cl)s3)nc3ccccc23)CC(C)O1` (stereo unspecified) was tested. Which AC35 did it give?
A: The AC35 was 3.32 µM.

Q: For `COc1ccc2c(c1)OC[C@H]1[C@H]2N2C(=O)c3ccc(F)cc3NC(=O)[C@@]2(C)[C@H]1c1ccccc1`, which AC35 is on record?
A: The AC35 was 1.07 µM.

Q: How did the AC35 turn out when `CNC(=O)c1cccn(Cc2cccc(C(F)(F)F)c2)c1=O` was run?
A: The AC35 was 0.231 µM.

Q: Which AC35 does the source give for `C[C@H](CO)N1C[C@H](C)[C@@H](CN(C)S(=O)(=O)c2cccs2)Oc2c(NC(=O)Cc3ccccc3)cccc2C1=O` here?
A: Its AC35 is 2.96 µM.

Q: With `Cc1ccc(-c2cc(C(=O)N/N=C/c3c[nH]c4ccccc34)[nH]n2)cc1` as the compound, how does the AC35 read?
A: The AC35 was 0.101 µM.

Q: With `c1ccc2c(c1)C1=NCCN1c1ccccc1-2` as the compound, how does the AC35 read?
A: Its AC35 is 6.25 µM.

Q: For `Cc1ccc(S(=O)(=O)N(C)C[C@H]2Oc3ccc(NC(=O)C4CCCCC4)cc3C(=O)N([C@H](C)CO)C[C@H]2C)cc1`, which AC35 is on record?
A: Its AC35 is 0.555 µM.

Q: For `Cc1ccc2nc(/C(C#N)=C/c3cn[nH]c3-c3ccc(F)cc3)[nH]c2c1`, which AC35 is on record?
A: The AC35 was 2.18 µM.

Q: `CCN(CCCNC(=O)COc1cc(=O)n(CC)c2ccccc12)Cc1ccccc1` was tested. Which AC35 did it give?
A: Its AC35 is 0.517 µM.

Q: How did the AC35 turn out when `COc1ccc(NC(=O)CSc2nc3ccsc3c(=O)n2Cc2ccccn2)c(OC)c1` was run?
A: The AC35 was > 19.5 µM (inactive).

Q: Which AC35 does the source give for `O=C(Nc1ccccc1O)c1ccc(NC(=O)C2CC2)cc1` here?
A: Its AC35 is 0.432 µM.

Q: For `CCOC(=O)c1c(NC(=O)c2cc3n(n2)C(C(F)(F)F)CC(c2cccs2)N3)sc(C)c1C` (stereo unspecified), which AC35 is on record?
A: Its AC35 is 5.36 µM.

Q: How did the AC35 turn out when `Cc1cccc(NC(=O)c2cnn3ccccc23)c1C` was run?
A: The AC35 was 0.532 µM.

Q: With `Cn1c(-c2ccccc2)c(/C=N/NC(=O)c2cccnc2)c2ccccc21` as the compound, how does the AC35 read?
A: The AC35 was 0.171 µM.

Q: With `O=c1cc(N2CCN(c3ccccc3Cl)CC2)[nH]c(=O)n1Cc1ccc(F)cc1` as the compound, how does the AC35 read?
A: Its AC35 is 3.26 µM.

Q: With `O=C(Nc1ccc(S(=O)(=O)N2CCOCC2)cc1)c1cc(-c2cc(Cl)ccc2O)n[nH]1` as the compound, how does the AC35 read?
A: Its AC35 is 1.37 µM.

Q: For `CC(=O)Nc1ccc(NC(=O)c2ccc(-c3c(C)noc3C)c3ccoc23)cc1`, which AC35 is on record?
A: The AC35 was 5.69 µM.

Q: With `C/C(=N\NC(=O)c1c(Cl)c(C)nn1C)c1ccc(NC(=O)C2CCC2)cc1` as the compound, how does the AC35 read?
A: Its AC35 is 0.475 µM.

Q: With `Cc1cccn2c(=O)c3cc(C(=O)N4CCC5(CC4)OCCO5)n(C)c3nc12` as the compound, how does the AC35 read?
A: Its AC35 is 0.31 µM.

Q: `COc1ccc2c(c1)[C@H]1[C@H](CO2)[C@H](c2ccccc2)[C@]2(C)C(=O)Nc3cc(OC)c(OC)cc3C(=O)N12` was tested. Which AC35 did it give?
A: The AC35 was 0.0202 µM.

Q: `COC(=O)Nc1nc2ccc(-c3n[nH]c(=O)c4ccccc34)cc2[nH]1` was tested. Which AC35 did it give?
A: Its AC35 is 0.282 µM.

Q: For `Cn1c(=O)[nH]c(=O)c2c1nc(N1CCN(Cc3ccccc3)CC1)n2CCCc1ccccc1`, which AC35 is on record?
A: Its AC35 is 0.465 µM.

Q: Which AC35 does the source give for `Cc1ccc(Nc2nc(N)nc(CN3CCN(Cc4ccccc4)CC3)n2)cc1Cl` here?
A: Its AC35 is 0.107 µM.

Q: With `O=C1COc2ccc(C(=O)/C=C/c3ccccc3)cc2N1` as the compound, how does the AC35 read?
A: The AC35 was 0.641 µM.

Q: Which AC35 does the source give for `c1ccc(CNc2nc(-c3ccccc3)nc3ccccc23)cc1` here?
A: Its AC35 is 3.01 µM.

Q: With `COc1cc(/C=N/NC(=O)c2ccc(-c3ccccc3)cc2)cc(OC)c1OC` as the compound, how does the AC35 read?
A: The AC35 was 4.6 µM.

Q: With `O=C(NCc1cccs1)C1Cc2c(-c3ccc(Cl)cc3)ccnc2O1` (stereo unspecified) as the compound, how does the AC35 read?
A: Its AC35 is 0.166 µM.

Q: How did the AC35 turn out when `OCC1OC(n2ccc3c(SCc4ccccc4)ncnc32)C(O)C1O` (stereo unspecified) was run?
A: The AC35 was 0.148 µM.

Q: `CC1(C(=O)NCC2CCOCC2)Cc2c(-c3cccc(C(F)(F)F)c3)ccnc2O1` (stereo unspecified) was tested. Which AC35 did it give?
A: The AC35 was 0.0325 µM.

Q: Which AC35 does the source give for `COc1ccc(C(=O)n2c(-c3ccco3)nc3ccccc32)cc1` here?
A: Its AC35 is 0.934 µM.

Q: For `COc1cc(C(=O)NCC(=O)NCCN2C(=O)S/C(=C\c3ccccc3Cl)C2=O)cc(OC)c1OC`, which AC35 is on record?
A: The AC35 was 1.15 µM.

Q: `O=C(NC(=C(Cl)Cl)S(=O)(=O)c1ccc(Cl)cc1)c1ccccc1` was tested. Which AC35 did it give?
A: The AC35 was 2.16 µM.

Q: Which AC35 does the source give for `COc1ccc(CC(=O)NCc2ccc(-n3cccc3)cc2)cc1OC` here?
A: The AC35 was 1.61 µM.

Q: For `COc1cc2c(cc1OC)C(c1ccccc1)N(C(=O)c1ccccc1)CC2` (stereo unspecified), which AC35 is on record?
A: Its AC35 is 0.321 µM.

Q: How did the AC35 turn out when `COc1ccc(OC)c(Nc2ncnc3c2cnn3-c2cccc(C)c2)c1` was run?
A: The AC35 was 4.59 µM.

Q: For `COc1cccc(C(=O)Nc2ccc3c(c2)C(=O)c2ccccc2C3=O)c1`, which AC35 is on record?
A: The AC35 was 0.121 µM.

Q: Which AC35 does the source give for `COc1ccc(-n2c(=S)[nH]c3cc(C(=O)Nc4ccc(C)c(F)c4)ccc3c2=O)c(OC)c1` here?
A: The AC35 was 0.245 µM.

Q: `Nc1[nH]nc2nc(NCc3ccccc3)c3c(c12)CCN(Cc1ccccc1)C3` was tested. Which AC35 did it give?
A: The AC35 was 2.84 µM.

Q: Which AC35 does the source give for `O=C(Nc1ccccc1)N(CCN1CCOCC1)Cc1ccccc1F` here?
A: The AC35 was 2.37 µM.
